Assay results as given in patent publication US20250332160A1, “COMPOSITION CONTAINING ARIPIPRAZOLE AS ACTIVE INGREDIENT FOR ENHANCING ANTICANCER EFFECT OF ERK INHIBITOR” (KOREA INSTITUTE OF RADIOLOGICAL & MEDICAL SCIENCES, priority 2022, published 2025).

What was measured:
[1] = tested on: NOXA; assay: Expression of NOXA protein in COLO 205 cells, Western blot; type: cell-based; conditions: eight hours after treatment, Western blot (FIG. 1)
Description: (§1) To identify an effect of aripiprazole on the expression of NOXA and PUMA proteins in cancer cells, COLO 205 cells were treated with aripiprazole. Eight hours later, proteins were extracted from cells after washing with PBS, and a level of NOXA and PUMA expression was checked via Western blot.

[2] = tested on: PUMA; assay: Expression of PUMA protein in COLO 205 cells, Western blot; type: cell-based; conditions: eight hours after treatment, Western blot (FIG. 1)
Description: as §1

O=C1CCc2ccc(OCCCCN3CCN(c4cccc(Cl)c4Cl)CC3)cc2N1 [aripiprazole]
expression of NOXA protein [1]: increased | expression of PUMA protein [2]: increased
